# Tests used:
# [1] = Inhibition of NP-40-induced beta-haematin formation after 5 to 6 hrs hrs by UV-vis spectroscopic analysis; format: physicochemical
# CHO = test: Cytotoxicity against CHO cells by MTT assay; format: cell-based; details: Cricetulus griseus
IC50 [1] [µM],Structure (SMILES),IC50 (CHO) [µM]
6.8,CCN(CC)Cc1cc(Nc2ccnc3cc(Cl)ccc23)ccc1O,–
18.2,CCN(CC)CCCC(C)Nc1ccnc2cc(Cl)ccc12 (stereo not drawn) [CHLOROQUINE],–
–,CC[C@H]1CN2CCc3cc(OC)c(OC)cc3[C@@H]2C[C@@H]1C[C@H]1NCCc2cc(OC)c(OC)cc21 [EMETINE],0.041

# — ChEMBL document CHEMBL2434909, “In vitro antimalarial activity, β-haematin inhibition and structure-activity relationships in a series of quinoline triazoles” (Eur J Med Chem, 2013)
